Assay results from patent US9163066B2, “Antimicrobial lytic peptides” (priority 2010, dated 2015).

Legend:
angiogenesis = details: known activity, seen as a safety problem for humans; cited from earlier work
Fusarium moniliforme = assay: Antimicrobial activity against pathogens (MIC80 / MBC100); format: cell-based; details: concentration necessary to kill 100%
From the text: (§1) A comparison of antimicrobial activity for these two naturally occurring peptides against various pathogens (combined fungal and bacterial) is summarized below

Aspergillus flavus = assay: as above; format: cell-based; details: concentration of D4E1 necessary to kill 100% of the pathogens
From the text: as §1

Xanthomonas campestris = assay: as above; format: cell-based; details: concentration necessary to kill 100%
From the text: as §1

Aspergillus fumigatus = assay: as above; format: cell-based; details: concentration necessary to kill 100%
From the text: as §1

Fusarium oxysporum = assay: as above; format: cell-based; details: concentration necessary to kill 100%
From the text: as §1

Erwinia stewartii = assay: as above; format: cell-based; details: concentration necessary to kill 100%
From the text: as §1

bacteria = assay: Antibacterial activity of the peptides, broth microdilution MIC, mean activity (Table II); format: cell-based; details: overnight incubation (18 to 24 h)
Method: Minimum Inhibitory Concentration or MIC for the purpose of this invention is the lowest concentration of an antimicrobial that will inhibit the visible growth of a microorganism after overnight incubation. Minimum inhibitory concentrations are important in diagnostic laboratories to confirm resistance of microorganisms to an antimicrobial agent and also to monitor the activity of new antimicrobial agents. A MIC is generally regarded as the most basic laboratory measurement of the activity of an antimicrobial agent against an organism. MBC is defined as the lowest concentration of an antimicrobial agent needed to kill 99.9% of the initial organism inoculum. Presently, specific guidelines for interpretation are not available; therefore, a clinician knowledgeable in both bactericidal testing and infectious diseases should be available to interpret the results.
MICs were determined by the broth microdilution method described by the National Committee for Clinical Laboratory Standards (17). Serial twofold dilutions of each peptide solution were prepared (final volume, […]) in microtiter trays with appropriate medium. Each dilution series included control wells containing bacteria without peptide. A total of […] of the adjusted inoculum (100,000 organisms) was added to each well, and then the trays were incubated at
in ambient air overnight (18 to 24 h). The MIC of each peptide for each isolate was read as the lowest concentration of peptide that inhibited visible growth of the organism.
The above in vitro tests and analyses were conducted on a set of designed peptides of the present invention; and, for comparative purposes, naturally derived molecules.

[1] = tested on: red blood cells (erythrocytes); assay: Hemolytic activity of the peptides (hemoglobin release, absorbance at 412 nm); format: cell-based
Method: Hemolysis as defined herein is an in vitro assay where the compounds tendency to lyse red blood cells is determined. Presumably, the compounds that are less hemolytic will be less toxic in vivo. Increasing amounts of compound are added to solutions containing red blood cells and left for a specified time and then lysis is determined spectrophotometrically by measuring hemoglobin release.
A small volume of a suspension of erythrocytes (about 100 million) is kept on ice with a specific amount of lytic peptide. The cells are then placed in a 37° C. water bath for 10 min, vortexed and centrifuged at 1000 g for 2 min. The supernatant was removed and the amount of hemoglobin that was released was determined by the samples' absorbance at 412 nm. Control values without added peptide were subtracted from the absorbance readings.
The numerical difference between the value of the mean of hemolysis and the mean of the activity is a useful way to determine those peptides having the most desired activity.

[2] = tested on: pathogens of cotton, poplar and pome fruits such as pears and apples; details: tested by a number of labs throughout the world; cited from earlier work

Sequence | activities in mammals (angiogenesis) | D4E1 MBC100 (Fusarium moniliforme) [µM] | D4E1 MBC100 (Aspergillus flavus) [µM] | D4E1 MBC100 (Xanthomonas campestris) [µM] | D4E1 MBC100 (Aspergillus fumigatus) [µM] | D4E1 MBC100 (Fusarium oxysporum) [µM] | D4E1 MBC100 (Erwinia stewartii) [µM] | Mean Activity (bacteria) [µM] | Mean of Hemolysis [1] [µM] | efficacy in limiting plant pathogens [2]
RRRPRPPYLPRPRPPPFFPPRLPPRIPPGFPPRFPPRFP [PR39, antimicrobial peptide found in swine] | stimulation of angiogenesis |  |  |  |  |  |  |  |  | 
FKLRAKIKVRLRAKIKL [D4E1, D4E1 (AgroMed), earlier synthetic lytic peptide tested by a number of labs] |  | 3 | 12 | 2 | 12 | 3 | 1 | 0.77 | 3.6 | efficacious in limiting pathogens of cotton, poplar and pome fruits
